Laboratory results from the CheMixHub viscosity set.

Test: xn = mol fraction of the nth substance listed

COCCOC + CCCCCCCO
101 kPa
Settings	viscosity [mPa·s]
293.15 K, x1 = 0.04689	5.696
293.15 K, x1 = 0.1108	4.364
293.15 K, x1 = 0.1958	3.168
293.15 K, x1 = 0.2906	2.308
293.15 K, x1 = 0.402	1.645
293.15 K, x1 = 0.4906	1.283
293.15 K, x1 = 0.6674	0.843
293.15 K, x1 = 0.7068	0.768
293.15 K, x1 = 0.8006	0.631
293.15 K, x1 = 0.894	0.525
293.15 K, x1 = 0.948	0.477
303.15 K, x1 = 0.03301	4.403
303.15 K, x1 = 0.1088	3.286
303.15 K, x1 = 0.1924	2.49
303.15 K, x1 = 0.2936	1.802
303.15 K, x1 = 0.4015	1.325
303.15 K, x1 = 0.4903	1.066
303.15 K, x1 = 0.594	0.842
303.15 K, x1 = 0.7001	0.671
303.15 K, x1 = 0.8062	0.542
303.15 K, x1 = 0.8901	0.467
303.15 K, x1 = 0.9469	0.425
313.15 K, x1 = 0.04399	3.176
313.15 K, x1 = 0.1188	2.473
313.15 K, x1 = 0.1968	1.933
313.15 K, x1 = 0.2941	1.478
313.15 K, x1 = 0.404	1.121
313.15 K, x1 = 0.4883	0.918
313.15 K, x1 = 0.6006	0.717
313.15 K, x1 = 0.6962	0.591
313.15 K, x1 = 0.8094	0.482
313.15 K, x1 = 0.9	0.41
313.15 K, x1 = 0.9404	0.386

CCC(C)=O + CCCCCCO
viscosity [mPa·s], 100 kPa
Settings	x1 = 0.0791	x1 = 0.1639	x1 = 0.2389	x1 = 0.3481	x1 = 0.4401	x1 = 0.5609	x1 = 0.6516	x1 = 0.7391	x1 = 0.8511	x1 = 0.9382
293.15 K	3.8	2.9	2.29	1.69	1.3	0.93	0.75	0.57	0.41	0.4
303.15 K	2.95	2.28	1.87	1.42	1.09	0.81	0.7	0.58	0.47	0.41
313.15 K	2.28	1.8	1.49	1.15	0.92	0.72	0.6	0.51	0.42	0.37
323.15 K	1.8	1.46	1.21	0.96	0.79	0.62	0.52	0.45	0.37	0.34

CCCCCCOC(C)=O + CCCCCCO
viscosity [mPa·s], 101.33 kPa
Settings	x1 = 0.0998	x1 = 0.2013	x1 = 0.3012	x1 = 0.4056	x1 = 0.4937	x1 = 0.6002	x1 = 0.7021	x1 = 0.8045	x1 = 0.9018
293.15 K	4.012	3.281	2.721	2.266	1.964	1.677	1.464	1.299	1.176
303.15 K	3.073	2.502	2.065	1.71	1.474	1.249	1.083	0.954	0.858
313.15 K	2.301	1.899	1.584	1.332	1.164	1.005	0.887	0.795	0.726

COCCOC + CCCCCCO
101 kPa
Settings	viscosity [mPa·s]
293.15 K, x1 = 0.03644	4.556
293.15 K, x1 = 0.07492	3.875
293.15 K, x1 = 0.1757	2.656
293.15 K, x1 = 0.2488	2.089
293.15 K, x1 = 0.3376	1.607
293.15 K, x1 = 0.4282	1.265
293.15 K, x1 = 0.5085	1.055
293.15 K, x1 = 0.5954	0.873
293.15 K, x1 = 0.6767	0.743
293.15 K, x1 = 0.7648	0.633
293.15 K, x1 = 0.8067	0.59
293.15 K, x1 = 0.8909	0.547
293.15 K, x1 = 0.9608	0.506
303.15 K, x1 = 0.03689	3.354
303.15 K, x1 = 0.08234	2.83
303.15 K, x1 = 0.1774	2.045
303.15 K, x1 = 0.2433	1.681
303.15 K, x1 = 0.3417	1.289
303.15 K, x1 = 0.4228	1.068
303.15 K, x1 = 0.5142	0.867
303.15 K, x1 = 0.5898	0.744
303.15 K, x1 = 0.6726	0.638
303.15 K, x1 = 0.7604	0.55
303.15 K, x1 = 0.8168	0.505
303.15 K, x1 = 0.8829	0.478
303.15 K, x1 = 0.9497	0.439
313.15 K, x1 = 0.02681	2.68
313.15 K, x1 = 0.04032	2.555
313.15 K, x1 = 0.07518	2.269
313.15 K, x1 = 0.1706	1.69
313.15 K, x1 = 0.3414	1.091
313.15 K, x1 = 0.4234	0.908
313.15 K, x1 = 0.5104	0.758
313.15 K, x1 = 0.5912	0.651
313.15 K, x1 = 0.6717	0.565
313.15 K, x1 = 0.7706	0.482
313.15 K, x1 = 0.8138	0.467
313.15 K, x1 = 0.8786	0.432
313.15 K, x1 = 0.9463	0.397

CCC(C)=O + CCCCCO
viscosity [mPa·s], 100 kPa
Settings	x1 = 0.0814	x1 = 0.1574	x1 = 0.2391	x1 = 0.3486	x1 = 0.4417	x1 = 0.5529	x1 = 0.6492	x1 = 0.7389	x1 = 0.8509	x1 = 0.9389
293.15 K	2.92	2.27	1.8	1.33	1.07	0.84	0.66	0.55	0.42	0.39
303.15 K	2.31	1.82	1.46	1.12	0.91	0.73	0.61	0.52	0.45	0.4
313.15 K	1.8	1.45	1.2	0.92	0.77	0.63	0.54	0.46	0.4	0.36
323.15 K	1.45	1.18	0.99	0.78	0.66	0.54	0.46	0.4	0.35	0.32

CCCCCCOC(C)=O + CCCCCO
viscosity [mPa·s], 101.33 kPa
Settings	x1 = 0.1057	x1 = 0.2038	x1 = 0.3074	x1 = 0.4005	x1 = 0.5019	x1 = 0.6009	x1 = 0.7083	x1 = 0.8029	x1 = 0.9041
293.15 K	3.347	2.798	2.346	2.028	1.755	1.548	1.373	1.253	1.153
303.15 K	2.392	2.002	1.682	1.456	1.262	1.115	0.991	0.906	0.835
313.15 K	1.889	1.594	1.352	1.181	1.035	0.924	0.83	0.766	0.712

COC(C)=O + CCCCCO
298.15 K, 101.33 kPa
Settings	viscosity [mPa·s]
x1 = 0.1014	2.381
x1 = 0.2082	1.64
x1 = 0.2879	1.292
x1 = 0.3821	1.011
x1 = 0.4786	0.823
x1 = 0.5766	0.69
x1 = 0.6788	0.575
x1 = 0.7517	0.505
x1 = 0.846	0.425
